Measurements taken from BindingDB's records for doi:10.7270/Q2SB4462 (Burnham Center For Chemical Genomics, 2011).

What follows are compounds tested against T1, Ubiquitin-conjugating enzyme E2 N (Homo sapiens, UniProt P61088) (assay: concentration-dependent UBC13 chain formation blockade – biochemical, TR-FRET, reconfirmation, dose response (AID 493182)).
T1 sequence (P61088 whole entry): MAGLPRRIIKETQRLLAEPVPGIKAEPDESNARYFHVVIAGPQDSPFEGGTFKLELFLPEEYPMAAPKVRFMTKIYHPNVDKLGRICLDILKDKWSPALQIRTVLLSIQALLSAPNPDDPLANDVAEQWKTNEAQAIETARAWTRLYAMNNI
Compound O=C1N=c2ccccc2=C1NNC(=S)NCC1CCCO1 (stereo not given) has an IC50 of 0.967 µM.
For Cc1cccc(NC(=S)NNC2=c3ccccc3=NC2=O)c1, the IC50 was 0.594 µM.
Compound COc1ccc(CN=Nc2cc(C)nc3ccc(OC)cc23)c(OC)c1 has an IC50 of 6.39 µM.
Cc1cc(C)c2c(c1)=C(NNC(=S)NCC1CCCO1)C(=O)N=2 (stereo not given) gave an IC50 of 0.509 µM.
With O=C1Nc2ccc([N+](=O)[O-])cc2C1=NNC(=S)NCC1CCCO1 (stereo not given) the IC50 was 0.664 µM.
For NC(=S)NN=C1C(=O)N(CCCl)c2ccccc21, the IC50 was 10.8 µM.
COC(=O)c1ccc(CN2C(=O)C(=NNC(N)=S)c3ccccc32)o1 was tested, and the IC50 was > 20 µM.
Compound CCOC(=O)C1C(COC(=O)c2ncc(Cl)c(Cl)c2Cl)=NC(=O)NC1C (stereo not given) has an IC50 of 9.23 µM.
With COCCNC(=S)NN=C1C(=O)Nc2ccc([N+](=O)[O-])cc21 [1-(2-methoxyethyl)-3-[(5-nitro-2-oxoindol-3-yl)amino]thiourea] the IC50 was 1.52 µM.
O=C1Nc2ccccc2/C1=N/NC(=S)Nc1ccc(O)cc1 [1-(4-hydroxyphenyl)-3-[(2-oxidanylideneindol-3-yl)amino]thiourea] gave an IC50 of 0.763 µM.
Work on CCCCNC(=S)N/N=C1\C(=O)Nc2ccccc21 [1-butyl-3-[(2-oxidanylideneindol-3-yl)amino]thiourea] yielded an IC50 of 5.96 µM.
Compound CCNC(=S)NNC1=c2cc(C(C)C)ccc2=NC1=O [1-ethyl-3-[(2-oxo-5-propan-2-yl-3-indolyl)amino]thiourea] has an IC50 of 2.49 µM.
CCN(CC)CCOC(=O)c1ccc(N=CC(C#N)c2nc(-c3ccc4c(c3)OCO4)cs2)cc1 (stereo not given) [2-(diethylamino)ethyl 4-[[(Z)-2-[4-(1,3-benzodioxol-5-yl)-1,3-thiazol-2-yl]-2-cyano-ethenyl]amino]benzoate] gave an IC50 of 5.07 µM.
CCN(CC)CCOC(=O)c1ccc(N=CC(C#N)c2nc(-c3cc4ccccc4oc3=O)cs2)cc1 (stereo not given) [2-(diethylamino)ethyl 4-[[(Z)-2-cyano-2-[4-(2-oxochromen-3-yl)-1,3-thiazol-2-yl]ethenyl]amino]benzoate] gave an IC50 of 3.5 µM.
Compound CCN(CC)CCOC(=O)c1ccc(N=CC(C#N)c2nc(-c3ccc(OC)cc3)cs2)cc1 (stereo not given) [4-[[(Z)-2-cyano-2-[4-(4-methoxyphenyl)-2-thiazolyl]ethenyl]amino]benzoic acid 2-(diethylamino)ethyl ester] has an IC50 of 4.3 µM.
Compound CC(=O)N1N=C(C2C(=O)N(C)C(=O)N(C)C2=O)CC1c1ccccc1 (stereo not given) [5-(1-acetyl-5-phenylpyrazolidin-3-ylidene)-1,3-dimethyl-1,3-diazinane-2,4,6-trione] has an IC50 of 19.5 µM.
For N=C(N)C1=CC(=O)/C(=C/C=c2ccc(=C(N)N)cc2)C=C1 [(4E)-4-[2-[4-[bis(azanyl)methylidene]cyclohexa-2,5-dien-1-ylidene]ethylidene]-3-oxidanylidene-cyclohexa-1,5-diene-1-carboximidamide;2-oxidanylethanesulfonic acid], the IC50 was 2.8 µM.
C#CCOCCOCCOCCNc1nc(N2CCN(C(=O)CCCCCCCCCCNC(=O)[C@H](CCCCN)n3cc(CCCC(=O)O)nn3)CC2)nc(N2CCN(C(=O)CCCCCCCCCCNC(=O)[C@H](CCCN=C(N)N)n3cc(C[C@@H](C)CC)nn3)CC2)n1 [EK-IR] showed an IC50 of 3.61 µM.
In the case of C#CCOCCOCCOCCNc1nc(N2CCN(C(=O)CCCCCCCCCCNC(=O)[C@H]([C@@H](C)CC)n3cc(CCCCN=C(N)N)nn3)CC2)nc(N2CCN(C(=O)CCCCCCCCCCNC(=O)[C@@H]([C@H](C)O)n3cc(C)nn3)CC2)n1 [GT-RI], the IC50 is reported as 4.63 µM.
C#CCOCCOCCOCCNc1nc(N2CCN(C(=O)CCCCCCCCCCNC(=O)Cn3cc(CCCCCN)nn3)CC2)nc(N2CCN(C(=O)CCCCCCCCCCNC(=O)[C@H]([C@@H](C)CC)n3cc(CCCCN=C(N)N)nn3)CC2)n1 [KG-RI] was tested, and the IC50 was 2.11 µM.
Compound C#CCOCCOCCOCCNc1nc(N2CCN(C(=O)CCCCCCCCCCNC(=O)Cn3cc(CCCCCN)nn3)CC2)nc(N2CCN(C(=O)CCCCCCCCCCNC(=O)Cn3cc(C[C@@H](C)O)nn3)CC2)n1 [KG-TG] has an IC50 of 7.41 µM.
C#CCOCCOCCOCCNc1nc(N2CCN(C(=O)CCCCCCCCCCNC(=O)[C@H]([C@@H](C)CC)n3cc(CCCCCN)nn3)CC2)nc(N2CCN(C(=O)CCCCCCCCCCNC(=O)[C@H](CCCCN)n3cc(CCCC(=O)O)nn3)CC2)n1 [KI-EK] was tested, and the IC50 was 6.08 µM.
C#CCOCCOCCOCCNc1nc(N2CCN(C(=O)CCCCCCCCCCNC(=O)[C@@H](CCC(=O)O)n3cc(CCCCCN)nn3)CC2)nc(N2CCN(C(=O)CCCCCCCCCCNC(=O)[C@H]([C@@H](C)CC)n3cc(CCCCCN)nn3)CC2)n1 [KI-KE] was tested, and the IC50 was 6.61 µM.
C#CCOCCOCCOCCNc1nc(N2CCN(C(=O)[C@H](Cc3cc4ccccc4[nH]3)n3cc([C@@H](N)CC(C)C)nn3)CC2)nc(N2CCN(C(=O)[C@H](Cc3cc4ccccc4[nH]3)n3cc([C@@H](N)CC(C)C)nn3)CC2)n1 [LW-LW] was tested, and the IC50 was 6.4 µM.
For CCOC(=O)c1c(C)c2c(n1C)CCCC2N=O (stereo not given) [MLS000026784], the IC50 was 8.75 µM.
With C#CCOCCOCCOCCNc1nc(N2CCN(C(=O)[C@H](CCCCN)n3cc([C@@H](N)C(C)CC)nn3)CC2)nc(N2CCN(C(=O)[C@H](Cc3cc4ccccc4[nH]3)n3cc([C@@H](N)C(C)CC)nn3)CC2)n1 (stereo not given in full) [MLS000562580] the IC50 was 2.68 µM.
C#CCOCCOCCOCCNc1nc(N2CCN(C(=O)[C@H](Cc3cc4ccccc4[nH]3)n3cc([C@@H](N)C(C)CC)nn3)CC2)nc(N2CCN(C(=O)[C@H](CCCCN)n3cc([C@@H](N)CC(C)C)nn3)CC2)n1 (stereo not given in full) [MLS000562581] showed an IC50 of 2.07 µM.
COCCNC(=S)NNC1=c2cc(C)cc(C)c2=NC1=O [MLS000774564] showed an IC50 of 0.561 µM.
With CCOC(=O)C1C(COC(=O)c2cc(OC)c(OC)c(OC)c2)=NC(=O)NC1C (stereo not given) [MLS001161811] the IC50 was 8.55 µM.
With Oc1c(Cc2cnc[nH]2)[nH]c(=S)n1-c1ccccc1 [MLS001163810] the IC50 was 4 µM.
In the case of C#CCOCCOCCOCCNc1nc(N2CCN(C(=O)CCCCCCCCCCNC(=O)Cn3cc(C[C@@H](C)O)nn3)CC2)nc(N2CCN(C(=O)CCCCCCCCCCNC(=O)[C@H](CCCN=C(N)N)n3cc(C[C@@H](C)CC)nn3)CC2)n1 [MLS002153601], the IC50 is reported as 4.86 µM.
For C#CCOCCOCCOCCNc1nc(N2CCN(C(=O)CCCCCCCCCCNC(=O)[C@H](CCCCN)n3cc(CCO)nn3)CC2)nc(N2CCN(C(=O)CCCCCCCCCCNC(=O)[C@H](CCCCN)n3cc(CCCC(=O)O)nn3)CC2)n1 [MLS002153608], the IC50 was 10.4 µM.
Work on C#CCOCCOCCOCCNc1nc(N2CCN(C(=O)CCCCCCCCCCNC(=O)[C@H](CCCCN)n3cc(C)nn3)CC2)nc(N2CCN(C(=O)CCCCCCCCCCNC(=O)[C@H](CCCN=C(N)N)n3cc(C[C@@H](C)CC)nn3)CC2)n1 [MLS002153614] yielded an IC50 of 2.18 µM.
Compound C#CCOCCOCCOCCNc1nc(N2CCN(C(=O)CCCCCCCCCCNC(=O)[C@H](CCCCN)n3cc(C)nn3)CC2)nc(N2CCN(C(=O)CCCCCCCCCCNC(=O)[C@@H]([C@H](C)CC)n3cc(CCCCCN)nn3)CC2)n1 [MLS002153655] has an IC50 of 2.23 µM.
With C#CCOCCOCCOCCNc1nc(N2CCN(C(=O)CCCCCCCCCCNC(=O)Cn3cc(CCCCCN)nn3)CC2)nc(N2CCN(C(=O)CCCCCCCCCCNC(=O)[C@H](CO)n3cc(CCCSC)nn3)CC2)n1 [MLS002153667] the IC50 was 4.08 µM.
Work on C#CCOCCOCCOCCNc1nc(N2CCN(C(=O)CCCCCCCCCCNC(=O)[C@H](CCCCN)n3cc(CCO)nn3)CC2)nc(N2CCN(C(=O)CCCCCCCCCCNC(=O)[C@@H]([C@H](C)O)n3cc(C)nn3)CC2)n1 [MLS002153685] yielded an IC50 of 7.24 µM.
With C#CCOCCOCCOCCNc1nc(N2CCN(C(=O)CCCCCCCCCCNC(=O)Cn3cc(CCCCCN)nn3)CC2)nc(N2CCN(C(=O)CCCCCCCCCCNC(=O)[C@H]([C@@H](C)CC)n3cc(CCCCCN)nn3)CC2)n1 [MLS002153714] the IC50 was 2.29 µM.
C#CCOCCOCCOCCNc1nc(N2CCN(C(=O)CCCCCCCCCCNC(=O)[C@H]([C@@H](C)CC)n3cc(CCCCCN)nn3)CC2)nc(N2CCN(C(=O)CCCCCCCCCCNC(=O)[C@H]([C@@H](C)CC)n3cc(CCCCN=C(N)N)nn3)CC2)n1 [MLS002153718] gave an IC50 of 2.19 µM.
C#CCOCCOCCOCCNc1nc(N2CCN(C(=O)CCCCCCCCCCNC(=O)[C@@H](CCSC)n3cc(CCO)nn3)CC2)nc(N2CCN(C(=O)CCCCCCCCCCNC(=O)[C@H](CCC(=O)O)n3cc(CCCCCN)nn3)CC2)n1 [MLS002153730] showed an IC50 of 16 µM.
Compound C#CCOCCOCCOCCNc1nc(N2CCN(C(=O)CCCCCCCCCCNC(=O)[C@@H](CCSC)n3cc(CCO)nn3)CC2)nc(N2CCN(C(=O)CCCCCCCCCCNC(=O)[C@H](CO)n3cc(CCCCCN)nn3)CC2)n1 [MLS002153734] has an IC50 of 4.24 µM.
Compound C#CCOCCOCCOCCNc1nc(N2CCN(C(=O)[C@H](CCCN=C(N)N)n3cc(C(N)[C@H](C)CC)nn3)CC2)nc(N2CCN(C(=O)[C@H](CCCN=C(N)N)n3cc(C(N)[C@@H](C)CC)nn3)CC2)n1 (stereo not given in full) [MLS002473475] has an IC50 of 19.3 µM.
COc1ccc2nc(C)cc(N=NCc3ccc(F)cc3)c2c1 [N-[(4-fluorophenyl)methylideneamino]-6-methoxy-2-methyl-4-quinolinamine] was tested, and the IC50 was 10.1 µM.
C#CCOCCOCCOCCNc1nc(N2CCN(C(=O)CCCCCCCCCCNC(=O)[C@H]([C@@H](C)CC)n3cc(CCCCN=C(N)N)nn3)CC2)nc(N2CCN(C(=O)CCCCCCCCCCNC(=O)[C@H](CCCCN)n3cc(C)nn3)CC2)n1 [RI-GK] was tested, and the IC50 was 1.68 µM.
CC1=CC(C)(C)N2C(=O)/C(=N\NC(N)=S)c3cccc1c32 [SMR000218901] showed an IC50 of 4.79 µM.
For CC(C)NC(=S)NNC1=c2cc(C(C)C)ccc2=NC1=O [SMR000242097], the IC50 was 3.56 µM.
COc1cc(C2c3c(-c4cccs4)n[nH]c3OC(=N)C2C#N)cc(OC)c1O (stereo not given) [SMR000275523] showed an IC50 of 1.47 µM.
With CCOc1ccc(-c2csc(NC(=O)c3cccc(-n4c(O)ccc4O)c3)n2)cc1 [SMR000319795] the IC50 was > 20 µM.
C#CCOCCOCCOCCNc1nc(N2CCN(C(=O)[C@H](CCCCN)n3cc([C@@H](N)C(C)CC)nn3)CC2)nc(N2CCN(C(=O)[C@H](Cc3cc4ccccc4[nH]3)n3cc([C@@H](N)CC(C)C)nn3)CC2)n1 (stereo not given in full) [SMR000391070] was tested, and the IC50 was 2.07 µM.
C#CCOCCOCCOCCNc1nc(N2CCN(C(=O)[C@H](CCCCN)n3cc([C@@H](N)C(C)CC)nn3)CC2)nc(N2CCN(C(=O)[C@H](Cc3ccc(O)cc3)n3cc([C@@H](N)C(C)CC)nn3)CC2)n1 (stereo not given in full) [SMR000391090] gave an IC50 of 10.2 µM.
C#CCOCCOCCOCCNc1nc(N2CCN(C(=O)[C@H](CCCCN)n3cc([C@@H](N)CC(C)C)nn3)CC2)nc(N2CCN(C(=O)[C@H](Cc3cc4ccccc4[nH]3)n3cc([C@@H](N)Cc4ccc(O)cc4)nn3)CC2)n1 [SMR000391143] was tested, and the IC50 was 2.78 µM.
